{
  "source": "patent EP4624482A1",
  "about": "“PYRIMIDOPYRIMIDINONE COMPOUND AND PHARMACEUTICAL COMPOSITION COMPRISING SAME” (Axceso Biopharma Co., Ltd., priority 2022, dated 2024)",
  "key": {"[1]": {"tested_on": "amyloid beta monomer (monomeric Aβ, mAβ)", "experiment": "mAβ expression in mouse brain of AD-induced animal model, fluorescence microscopy", "assay_type": "in vivo, mice", "settings": "1 mg/kg intraperitoneally once every 3 days for 2 weeks; brain sections at 1 week and 4 weeks after drug administration", "protocol": "(§1) To determine the therapeutic effect on Alzheimer's Disease (AD), the effects on amyloid beta monomer (monomeric Aβ, mAβ) and Tau protein, which are biomarkers of AD, were analyzed in an AD-induced animal model.\n(§2) APP/PS/Tau transgenic mice were used as an AD-induced animal model. The compound of formula (1a-1) was administered intraperitoneally once every 3 days at a concentration of 1 mg/kg to 12-week-old transgenic mice for 2 weeks, and the expression of mAβ and Tau proteins in the mouse brain was measured after 1 and 4 weeks. After anesthetizing the mouse, the cervical region was incised with a dissecting tool, and then the occipital region was incised to remove both sides of the skull. The brain was washed with phosphate buffered saline (PBS) and fixed with 4% paraformaldehyde (Sigma, St Louis, MO, USA) for 12 hours at 4°C. These were cut to a thickness of approximately 10 µm using a vibratome, and hippocampus and cortex sections were collected and placed in 24 wells. PBS was added to the wells containing the fixed tissue sections, and fluorescent nanoparticles (QD565, red fluorescence) conjugated with anti-amyloid antibodies and anti-Tau antibodies (Santa Cruz, USA) were added to each 2 µM, and reacted at 4°C for 12 hours. The expression of mAβ and Tau was confirmed by fluorescence microscopy."}, "[2]": {"tested_on": "C57BL/6 mice", "experiment": "Acute respiratory distress syndrome induced by CLP: lung histology, lung injury score, wet-to-dry weight ratio", "assay_type": "in vivo", "settings": "treated at 6 and 16 hours after CLP, lungs harvested at 18 hours", "protocol": "CLP induces pulmonary edema due to increased inflammation and disruption of the vascular barrier, resulting in acute respiratory distress syndrome (ARDS). To determine the effect on ARDS, the compound of formula (1a-1) was treated at 6 and 16 hours after CLP treatment in the same manner as in Experimental Example 7 above, the lungs of mice were harvested at 18 hours for histological analysis, and the wet-to-dry weight ratio of the lungs was obtained. For comparison, mice without CLP treatment served as a control group.\nFor histologic analysis, the harvested lungs were fixed in 10% paraformaldehyde, infiltrated with paraffin, sectioned into 5 µm-thick tissues, and then de-paraffinized with xylene. Sectioned tissues were mounted on slides, stained with H&E, and observed under an optical microscope. In addition, the lung tissue damage was evaluated by histological score to obtain the lung injury score (LIS) for each group.\nTo calculate the wet-to-dry weight ratio, lung organs were harvested 18 hours after CLP treatment, and the wet weight was measured immediately after harvesting, and the dry weight was measured after drying in an oven at 60°C for 48 hours to calculate the wet-to-dry weight ratio. The wet-to-dry weight ratio is used as an indicator of organ edema formation."}, "[3]": {"tested_on": "TNF-α", "experiment": "Serum TNF-α after CLP treatment, ELISA", "assay_type": "in vivo, mouse", "settings": "treated at 6 and 16 hours after CLP, serum at 18 hours", "protocol": "After CLP treatment, the inflammatory cytokines TNF-α and IL-6 were analyzed by ELISA.\nSpecifically, after treating the compound of formula (1a-1) at 6 and 16 hours after CLP treatment, mouse blood was collected at 18 hours and allowed to stand at room temperature for 1 hour, then centrifuged at 3000 rpm for 10 minutes to obtain serum to analyze the amount of TNF-α and IL-6."}, "[4]": {"tested_on": "α-synuclein", "experiment": "α-synuclein expression in rotenone-treated differentiated SH-SY5Y dopaminergic neurons, western blot", "assay_type": "cell-based, human", "settings": "differentiated dopaminergic neurons treated with rotenone", "protocol": "To analyze the effect on the expression of tyrosine hydroxylase (TH) and α-synuclein as neuron-specific proteins, western blot was performed.\nSH-SY5Y cell line was treated with retinoic acid and 12-O-tetradecanoylphorbol-13-acetate (TPA) to induce differentiation into TH-secreting neurons for 6 days.\nDifferentiated dopaminergic neurons were lysed in PRO-PREP (Intronbio), a cell lysis solution containing protease inhibitor cocktail (Gendepot), and electrophoresed in 10% SDS polyacrylamide gels at 20 µg/well. Transfer was performed using PVDF (Merck millipore) as a membrane, and tyrosine hydroxylase antibody, α-synuclein antibody (Cell signaling), and β-actin antibody (Santa Cruz) were used for reaction for more than 2 hours. Protein expression was detected by staining with ECL substrate (Biorad) for development and graphed using the image J program."}, "[5]": {"tested_on": "Tau protein", "experiment": "Tau expression in mouse brain of AD-induced animal model, fluorescence microscopy", "assay_type": "in vivo, mice", "settings": "1 mg/kg intraperitoneally once every 3 days for 2 weeks; brain sections at 1 week and 4 weeks after drug administration", "protocol": "as §1, §2"}, "[6]": {"tested_on": "C57BL/6 mice", "experiment": "Survival in sepsis induced by cecal ligation and puncture (CLP)", "assay_type": "in vivo", "settings": "100 ng/mouse (5 µg/kg) intravenously at 6 and 16 hours after CLP", "protocol": "C57BL/6 mice aged 7-8 weeks were purchased from Jabio (Suwon, Gyeonggi-do) and sepsis was induced by cecal ligation and puncture (CLP).\nSpecifically, after anesthesia using 150 mg/kg of ketamine and 17.5 mg/kg of rompun, an abdominal incision of 1-2 cm was made to expose the cecum to induce sepsis. The cecum was ligated with 6-0 silk sutures at the distal end of the ileocecal valve, and a puncture was made with an 18-gauge needle. The perforated cecum was gently squeezed to push out 1-2 cm of feces, and the cecum was then retracted back into the abdominal cavity. The abdomen was then closed and pre-warmed normal saline (2.5 mL/100 g body weight) was injected into the mouse abdominal cavity immediately after the procedure. 6 and 16 hours after CLP treatment, the compound of formula (1a-1) was dissolved in phosphate buffered saline (PBS) and injected intravenously at 100 ng/mouse (5 µg/kg), and survival was examined for 10 days. […] In addition, as a drug-negative control, survival was examined in mice that received only PBS after CLP treatment.\nFor comparison, we also examined the survival of a control group treated with fingolimod (FTY720), a known S1P modulator, instead of the compound of formula (1a-1) under the same conditions."}, "[7]": {"tested_on": "C57BL/6 mice", "experiment": "In vivo permeability of mouse organs after CLP, Evans blue dye", "settings": "treated at 6 and 16 hours after CLP, Evans blue dye at 18 hours", "protocol": "Permeability was measured by an in vitro method using cell culture and in vivo method using Evans blue dye. To increase permeability, LPS was used in the in vitro method and CLP treatment was used in the in vivo method.\nTo measure permeability by an in vivo method, the compound of formula (1a-1) was treated at 6 and 16 hours after CLP treatment in the same manner as in Experimental Example 7 above, and 200 µl of a 0.5% Evans blue dye (EBD) solution was administered intravenously at 18 hours, circulated for 1 hour, and organs were harvested to visually confirm the presence of dye. The organs were then homogenized in a homogenizer to extract the dye at 55 °C for 48 hours, and permeability was determined by measuring absorbance at 620 nm."}},
  "data": [
    {"compound": "CCCCCCCCCCCCCC[C@H]1OP(=O)(O)O[C@H]1[C@@H](N)CO.Cl", "note": "[formula (1a-1), (4S,5R)-4-((S)-1-amino-2-hydroxyethyl)-2-hydroxy-5-tetradecyl-1,3,2-dioxaphosphoran-2-oxide hydrochloride]", "values": [
      {"measurement": "red fluorescence for mAβ", "setting": "[1]", "value": "negligible"},
      {"measurement": "lung injury score", "setting": "[2]", "value": "almost restores the lung injury score to normal"},
      {"measurement": "lung tissue (optical microscope, H&E)", "setting": "[2]", "value": "almost restored to normal"},
      {"measurement": "wet-to-dry weight ratio of the lung", "setting": "[2]", "value": "restores the wet-to-dry weight ratio of the lung to normal"},
      {"measurement": "amount of inflammatory cytokine TNF-α", "setting": "[3]", "value": "significantly decreased"},
      {"measurement": "expression of α-synuclein increased by rotenone", "setting": "[4]", "value": "decreased"},
      {"measurement": "red fluorescence for Tau", "setting": "[5]", "value": "negligible"},
      {"measurement": "deaths after 10 days", "setting": "[6]", "value": "no deaths"},
      {"measurement": "survival", "setting": "[6]; for 10 days", "value": "more than 80%"},
      {"measurement": "amount of EBD in each organ", "setting": "[7]", "value": "returns to normal"}
    ]}
  ]
}
